Test results: patent publication US20190337924A1, “SUBSTITUTED HYDANTOIN AND THIOHYDANTOIN DERIVATIVES AS ANDROGEN RECEPTOR ANTAGONISTS” (Janssen Pharmaceutica NV, priority 2016, published 2019)
Where a name gives a salt, the structure may show the parent alone.

Target: T1, wild-type Androgen Receptor (AR-wt) (Homo sapiens, UniProt P10275)
T1 construct: expressed in transfected cells; host or cells: LNCaP
T1 sequence (P10275 1-920): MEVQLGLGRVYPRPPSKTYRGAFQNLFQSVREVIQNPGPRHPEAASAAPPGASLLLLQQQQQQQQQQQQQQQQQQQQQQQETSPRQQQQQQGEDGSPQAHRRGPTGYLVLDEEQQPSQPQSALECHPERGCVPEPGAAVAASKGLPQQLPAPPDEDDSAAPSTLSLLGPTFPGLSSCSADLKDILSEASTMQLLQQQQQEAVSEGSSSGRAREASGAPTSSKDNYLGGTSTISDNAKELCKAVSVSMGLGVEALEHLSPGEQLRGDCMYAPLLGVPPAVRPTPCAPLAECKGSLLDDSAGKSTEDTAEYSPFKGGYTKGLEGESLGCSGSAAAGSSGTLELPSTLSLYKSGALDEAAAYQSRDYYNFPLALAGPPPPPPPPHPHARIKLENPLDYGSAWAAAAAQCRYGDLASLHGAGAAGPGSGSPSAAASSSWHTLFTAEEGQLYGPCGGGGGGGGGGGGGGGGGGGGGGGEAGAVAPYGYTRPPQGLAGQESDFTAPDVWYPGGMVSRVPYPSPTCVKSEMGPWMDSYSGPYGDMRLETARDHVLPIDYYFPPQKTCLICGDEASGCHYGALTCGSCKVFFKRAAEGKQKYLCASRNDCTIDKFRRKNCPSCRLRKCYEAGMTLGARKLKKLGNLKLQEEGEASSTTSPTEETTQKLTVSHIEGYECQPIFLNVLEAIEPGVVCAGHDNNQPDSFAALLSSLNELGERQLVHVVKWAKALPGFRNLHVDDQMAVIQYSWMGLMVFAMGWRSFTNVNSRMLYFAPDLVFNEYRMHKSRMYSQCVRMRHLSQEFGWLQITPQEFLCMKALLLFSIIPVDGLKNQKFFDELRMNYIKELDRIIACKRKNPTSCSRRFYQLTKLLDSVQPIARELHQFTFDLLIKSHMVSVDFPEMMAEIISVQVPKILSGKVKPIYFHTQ
Assay: AR reporter assay, LNCaP-AR-wt AG (agonist mode)
Format: cell-based
Conditions: for Emax: read-out: LNCaP-AR-wt AG MAX % Stim
From the text: LNCaP AR (cs) and LNCaP F876L luciferase cell lines were generated by transduction of each cell line (description of cell line generation Joseph J D, Lu N, Qian J, Sensintaffar J, Shao G, Brigham D, Moon M, Maneval E C, Chen I, Darimont B, Hager J H. A clinically relevant androgen receptor mutation confers resistance to second-generation antiandrogens enzalutamide and ARN-509. Cancer Discov 2013; 3:1020-1029) with an Androgen Response Element Firefly Luciferase lentiviral construct at an MOI (multiplicity of infection) of 50 following the manufacturer's instructions (Qiagen). A stable pooled-population cell line was generated using puromycin (Life Technologies) selection at 1:10,000 v/v. The protocol below was used for both cell lines and for testing of the compounds of Formula (I) of the present invention.
LNCaP cells were grown to about 80% confluence, media removed and cells rinsed in Hank's balanced salt solution prior to separation from the plate with 0.05% Trypsin EDTA. Cells were lifted and trypsin negated in complete CSS (charcoal stripped serum) culture media. CSS was maintained on cells for 24 h prior to assay, at which time 5,000 cells/[…] were seeded in Greiner 384 well White/White Tissue Culture Treated Plates and incubated for a further 1-2 hours at 37° C., 5% CO2, prior to addition of 10 μL of 4× Test Compounds (compounds described herein) or Assay Controls (all diluted in complete media containing 10% css). A further 10 μL of 4× R-1881 Agonist Challenge (antagonist assay) or Buffer (agonist assay) was then added (all diluted in complete media containing 10% css). Agonist challenge was at 400 pM for WT assay and 600 pM for F876L assay. Plates containing cells and compounds herein were incubated for a further 20-24 hours at 37° C., 5% CO2 before addition of 40 μL/well of Steady-Glo Luciferase Assay System Reagent (Promega#E2520). After 1 h, plates were read for luminescence on a BMG Pherastar.
((Sample RLU−Ave Low Control RLU[DMSO/Buffer])/(Ave High Control RLU [1 μM R-1881]—Ave Low Control RLU[DMSO/Buffer]))*100.
EC/IC50 calculations were achieved utilizing calculated RLU data and data fitting macros. Data were fit using least-squares methods to the following formula: […]
As used herein: • pIC50 is defined as −Log10(IC50 expressed in [Molar]). • pEC50 is defined as −Log10(EC50 expressed in [Molar]). • MAX % Inh is defined as the maximum % inhibition of R1881 control response observed for a compound over the tested concentration range. • MAX % Stim is defined as the maximum % stimulation (agonist response) observed for a compound over the tested concentration range. • LNCaP-AR-wt ANT refers to the reporter assay using LNCaP cells stably transfected with the Androgen Response Element Firefly Luciferase lentiviral construct and wild-type Androgen Receptor (AR-wt) in Antagonist mode. • LNCaP-AR-wt AG refers to the reporter assay using LNCaP cells stably transfected with the Androgen Response Element Firefly Luciferase lentiviral construct and wild-type Androgen Receptor (AR-wt) in Agonist mode. • LNCaP-AR-F876L ANT refers to the reporter assay using LNCaP cells stably transfected with the Androgen Response Element Firefly Luciferase lentiviral construct and F876L mutant Androgen Receptor (AR-F876L) in Antagonist mode. • LNCaP-AR-F876L AG refers to the reporter assay using LNCaP cells stably transfected with the Androgen Response Element Firefly Luciferase lentiviral construct and F876L mutant Androgen Receptor (AR-F876L) in Agonist mode.

SMILES | EC50 | Emax
COc1cc(N2C(=O)C3(CCC3)N(c3ccc(OC4CCN(C)CC4)cc3)C2=S)ccc1C#N [Compound 19, 2-Methoxy-4-(5-(4-((1-methylpiperidin-4-yl)oxy)phenyl)-8-oxo-6-thioxo-5,7-diazaspiro[3.4]octan-7-yl)benzonitrile] | > 15.1 µM | -0.1%
COc1cc(N2C(=O)C3(CCC3)N(c3ccc(OC4CCN(C)CC4)nc3)C2=S)ccc1C#N [Compound 20, 2-Methoxy-4-(5-(6-((1-methylpiperidin-4-yl)oxy)pyridin-3-yl)-8-oxo-6-thioxo-5,7-diazaspiro[3.4]octan-7-yl)benzonitrile] | > 15.1 µM | -0.1%
N#Cc1ccc(N2C(=O)C3(CCC3)N(c3ccc(OC4CCNCC4)cc3)C2=S)cc1Cl [Compound 21, 2-Chloro-4-(8-oxo-5-(4-(piperidin-4-yloxy)phenyl)-6-thioxo-5,7-diazaspiro[3.4]octan-7-yl)benzonitrile] | > 15.1 µM | 0.1%
CN1CCC(Oc2ccc(N3C(=S)N(c4ccc(C#N)c(Cl)c4)C(=O)C34CCC4)cc2)CC1 [Compound 22, 2-Chloro-4-(5-(4-((1-methylpiperidin-4-yl)oxy)phenyl)-8-oxo-6-thioxo-5,7-diazaspiro[3.4]octan-7-yl)benzonitrile] | > 15.1 µM | -0.2%
N#Cc1ccc(N2C(=O)C3(CCC3)N(c3ccc(OC4CCNCC4)nc3)C2=S)cc1Cl [Compound 23, 2-Chloro-4-(8-oxo-5-(6-(piperidin-4-yloxy)pyridin-3-yl)-6-thioxo-5,7-diazaspiro[3.4]octan-7-yl)benzonitrile hydrochloride] | > 15.1 µM | 0.9%
CN1CCC(Oc2ccc(N3C(=S)N(c4ccc(C#N)c(Cl)c4)C(=O)C34CCC4)cn2)CC1 [Compound 24, 2-Chloro-4-(5-(6-((1-methylpiperidin-4-yl)oxy)pyridin-3-yl)-8-oxo-6-thioxo-5,7-diazaspiro[3.4]octan-7-yl)benzonitrile hydrochloride] | > 15.1 µM | 0.3%
